From US9567643B2, “Compositions and methods for treating cancers” (Aptose Biosciences Inc., priority 2013, dated 2017)
Structures can show the parent of a compound that is named as a salt.

Key:
[1] = system: advanced or metastatic solid tumours; test: Open-label phase 1 dose-escalating study; assay type: in vivo
Description: Phase I: This was an open-label, phase 1 study to determine the maximum tolerated dose (MTD) or appropriate target dose if MTD not reached to identify the recommended phase 2 dose of LOR-253 HCl in patients with advanced or metastatic solid tumours. In the first set of doses, LOR-253 HCl was given in ascending doses until the maximum administered dose or appropriate target dose is reached. In the other set of doses, LOR-253 HCl was given in ascending doses starting from 20 mg/m2 until the maximum administered dose or appropriate target dose is reached. Patient as treated on LOR-253 HCl for 2 cycles for the evaluation. • Other Name: No other names are used. • Study Type: Interventional • Study Design: • Endpoint Classification: Safety Study • Intervention Model: Single Group Assignment • Masking: Open Label • Primary Purpose: Treatment • Official Title: Open-Label, Phase 1 Study of LOR-253 HCl in Patients With Advanced or Metastatic Solid Tumours Primary Outcome Measures: • To determine the maximum tolerated dose (MTD) or appropriate target dose if MTD not reached to identify the recommended phase 2 dose of LOR-253 HCl in patients with advanced or metastatic solid tumours. [Time Frame: 8 weeks] Secondary Outcome Measures: • To characterize the safety profile of LOR-253 HCl when administered to patients with advanced or metastatic solid tumours. [Time Frame: 8 weeks] Inclusion Criteria: • 1. Male or female 18 years of age or older. • 2. Histologically confirmed diagnosis of solid tumor for which no effective therapy is available or that is unresponsive to conventional therapy. • 3. Meet laboratory parameter requirements at study entry. Exclusion Criteria: • 1. Chemotherapy, radiotherapy, biologic therapy, immunotherapy or any other investigational drugs within 21 days of beginning study treatment with LOR-253 HCl. • 2. A hematologic malignancy. • 3. A history of brain or other central nervous system metastases. • 4. Have a presence of a significant infection. • 5. Clinically significant autoimmune disease. • 6. Uncontrolled intercurrent illness. • 7. With iron or copper overload syndromes. • 8. Pregnancy or breast feeding.

[2] = Toxicity assessment in Kasumi-1 tumor-bearing mice; settings: 15 mg/kg twice per day i.v., two days per week, four weeks
Description: (§1) The anti-tumor activity of LOR-253 HCl was evaluated in another in vivo animal model of human AML. The human AML cell line Kasumi-1 was implanted subcutaneously into athymic nude mice. Some tumor-bearing mice were treated with LOR-253 HCl at 30 mg/kg (15 mg/kg twice per day) for two consecutive days per week for four weeks (the “LOR-253 treatment group”). LOR-253 was administered by intravenous (i.v.) bolus injection as the hydrochloric salt form (LOR-253-HCl) formulated in 20% Polyethylene Glycol 400, 10% Propylene Glycol, and 10% Solutol HS in 60% water.
(§2) The major endpoint was to observe for tumor growth inhibition after treatment with LOR-253 HCl and compare the anti-tumor effects of different dosing schedules. Tumor sizes were measured three times per week from day 10 after the tumor cell inoculation. Tumors were measured in three dimensions using calipers and the volume was expressed in millimeters cubed using the formula: V=0.5a×b×c, where a, b, and c are the length, width, and height of the tumor, respectively. Mean tumor volumes+/−standard error (SE) were calculated from each measurement and then plotted in a standard graph to compare the anti-tumor efficacy of drug treatment to that of control (FIG. 15). Toxicity was assessed by clinical observations and by measurement of mouse body weight in grams twice per week over the course of the study. […]

[3] = system: THP-1; test: THP-1 AML xenograft model; assay type: in vivo, mice; settings: THP-1 xenograft; Group-2: i.v. Days 1, 2, 8, 9, 15, 16 and IP Days 22-25, 29, 30; FIG. 21
Description: The anti-tumor activity of LOR-253 HCl, as a single agent and in combination with azacitidine, was evaluated in yet another in vivo animal model of human AML. Xenograft model mice for AML cell line THP-1 was generated with the same method as in Examples 14 and 15, and were treated with LOR-253 HCl alone or in combination with azacitidine, with azacitidine alone, or with a negative control vehicle, and tumor sizes were measured as described in Examples 14 and 15. The detailed treatment conditions are shown as follows, and the results are shown in FIG. 21. • Group 1 Control: received i.v. treatments with LOR-253 control vehicle (CV) on Days 1, 2, 8, 9, 15 &16; received subcutaneous (SC) treatments with Azacitidine control vehicle on Days 1, 4, 8, 11, 15, 18, 22, 25, 29 &32; and received intraperitoneal (IP) treatments with LOR-253-CV on Days 22, 23, 24, 25, 29&30. • Group-2—LOR-253: received i.v. treatments on Days 1, 2, 8, 9, 15 &16; received IP treatments on Days 22, 23, 24, 25, 29&30 • Group-3—Azacitidine: received SC treatments on Days 1, 4, 8, 11, 15, 18, 22, 25, 29 &32. • Group-4—Combination: received i.v. treatments with LOR-253 on Days 1, 2, 8, 9, 15 &16; received IP treatments with LOR-253 on Days 22, 23, 24 &25; and received SC-treatment with Azacitidine on Days 1, 4, 8, 11, 15, 18, 22 &25

[4] = system: HL-60; test: HL-60 AML xenograft model; assay type: in vivo, athymic nude mice; settings: HL-60 xenograft, 3 cycles, FIG. 17
Description: The human AML cell line HL-60 was implanted subcutaneously into athymic nude mice. Tumor-bearing mice were treated with LOR-253 HCl alone or in combination with azacitidine, with azacitidine alone, or with a negative control vehicle. The detailed treatment conditions are as follows. • Group 1: Negative control group. LOR-253 HCl control vehicle, 2×/day, 3 cycles of 2 consecutive days, 5 days between cycles, i.v., plus 1% D-mannitol every four days by s.c. injection • Group 2: Azacitidine (in 1% D-mannitol) at 10 mg/kg 1× on days 1, 4, 8, 11, 15 and 18 by subcutaneous (s.c.) injection • Group 3: LOR-253 HCl at 15 mg/kg bid for 3 cycles, each cycle is 2 consecutive days of dosing per week with 5 days of non-dosing, i.v., n=9 (2T-5B) • Group 4: LOR-253 HCl at 15 mg/kg 2×/day (bid) for 3 cycles, each cycle is 1 day of dosing per week with 6 days of non-dosing, i.v., n=9 (1T-6B) • Group 5: Combination of LOR-253 (2T-5B) and azacitidine. LOR-253 HCl at 15 mg/kg bid for 3 cycles, each cycle is 2 consecutive days of dosing per week with 5 days of non-dosing, i.v., n=9 (2T-5B) plus azacitidine at 10 mg/kg 1× every four days by s.c. injection • Group 6: Combination of LOR-253 (1T-6B) and azacitidine. […]
Tumor sizes were measured three times per week.

[5] = system: Kasumi-1; test: Kasumi-1 AML xenograft model; assay type: in vivo, athymic nude mice; settings: Kasumi-1 xenograft; 30 mg/kg (15 mg/kg twice per day) i.v., two consecutive days per week, four weeks; p=0.028 by Student's t-test; FIG. 15
Description: as §1, §2

[6] = system: KG-1; test: KG-1 AML xenograft model; assay type: in vivo, mice; settings: KG-1 xenograft; 15 mg/kg-iv, bid, 2T/wk; FIG. 20
Description: Xenograft model mice for AML cell line KG-1 was generated with the same method as in Examples 14 and 15, and were treated with LOR-253 HCl or control according to the following regime.
LOR-253—15 mg/kg-iv, bid, 2T/wk—Day 1

[7] = Repeat-dose toxicity study, cardiovascular effects; assay type: in vivo; settings: dogs, highest dose tested (data not shown)
[8] = target: hERG tail current density (Homo sapiens, UniProt Q12809); test: hERG tail current inhibition; assay type: cell-based; settings: preclinical testing
[9] = Pharmacokinetics, serum level after i.v. bolus; assay type: in vivo; settings: CD-1 nude mice; i.v. bolus of LOR-253 HCl at 1, 5, 15 mg/kg; FIG. 10
Description: To study the pharmacokinetic (PK) […], CD-1 nude mice were treated by i.v. bolus injections of LOR-253 HCl at 1, 5, and 15 mg/kg. The serum level of LOR-253 was measured.

[10] = GLP blood compatibility studies
[11] = system: CYP450 enzymes; test: CYP450 inhibition; assay type: in vitro ADME; settings: preclinical testing
[12] = patients with advanced solid tumors, phase I

Chain of hERG tail current density (Q12809 whole entry): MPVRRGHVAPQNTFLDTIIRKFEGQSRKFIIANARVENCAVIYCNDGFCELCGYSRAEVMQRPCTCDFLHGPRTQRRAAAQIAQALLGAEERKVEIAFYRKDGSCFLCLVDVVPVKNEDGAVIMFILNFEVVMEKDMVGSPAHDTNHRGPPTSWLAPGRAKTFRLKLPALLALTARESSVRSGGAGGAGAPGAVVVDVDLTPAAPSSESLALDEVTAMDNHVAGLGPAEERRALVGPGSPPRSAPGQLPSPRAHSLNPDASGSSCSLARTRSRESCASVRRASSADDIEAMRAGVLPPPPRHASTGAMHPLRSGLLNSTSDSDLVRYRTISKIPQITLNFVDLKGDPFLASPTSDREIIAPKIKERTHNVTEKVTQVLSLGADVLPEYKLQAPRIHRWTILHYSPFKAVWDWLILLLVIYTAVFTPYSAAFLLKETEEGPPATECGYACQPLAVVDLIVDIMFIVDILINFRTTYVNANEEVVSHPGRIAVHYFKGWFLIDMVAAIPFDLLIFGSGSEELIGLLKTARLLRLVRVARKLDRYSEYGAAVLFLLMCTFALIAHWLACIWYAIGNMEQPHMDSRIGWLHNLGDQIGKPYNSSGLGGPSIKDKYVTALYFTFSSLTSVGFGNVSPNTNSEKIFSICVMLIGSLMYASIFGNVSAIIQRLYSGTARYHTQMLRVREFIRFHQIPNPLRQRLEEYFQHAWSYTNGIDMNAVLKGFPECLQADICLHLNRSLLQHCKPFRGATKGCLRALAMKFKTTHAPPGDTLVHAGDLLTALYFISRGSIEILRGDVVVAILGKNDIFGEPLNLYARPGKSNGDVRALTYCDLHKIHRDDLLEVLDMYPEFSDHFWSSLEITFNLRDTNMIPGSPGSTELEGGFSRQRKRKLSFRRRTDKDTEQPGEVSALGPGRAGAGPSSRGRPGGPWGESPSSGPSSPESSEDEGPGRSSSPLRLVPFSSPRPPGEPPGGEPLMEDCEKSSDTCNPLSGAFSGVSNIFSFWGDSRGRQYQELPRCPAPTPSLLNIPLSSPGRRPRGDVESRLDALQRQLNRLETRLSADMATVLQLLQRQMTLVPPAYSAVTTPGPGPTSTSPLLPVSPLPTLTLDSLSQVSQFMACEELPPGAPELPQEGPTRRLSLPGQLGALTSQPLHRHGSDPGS

SMILES | safety profile ([1]; N=27 patients across 7 dose levels, phase I) | tumor response in single patient ([1]; patient with NSCLC (poorly differentiated adenocarcinoma) and extensive metastases refractory to prior therapies, FIG. 12) | RECIST partial response [1, 12] | most common AE and SAE [1, 12] | Stable Disease, share of evaluable patients ([1]; patients with advanced solid tumors, phase I, 7 dose levels) [%] | overt signs of toxicity (clinical observations) [2] | body weight ([2]; FIG. 16) | inhibition of tumor growth, single agent [3] | inhibition of tumor growth, single agent ([4]; Group 3: 15 mg/kg twice per day i.v., two consecutive days per week (2T-5B)) | inhibition of tumor growth, single agent ([4]; Group 4: 15 mg/kg twice per day i.v., one day per week (1T-6B)) | tumor growth inhibition vs vehicle control [5] | tumor growth inhibition, single agent [6] | cardiovascular effects [7] | inhibition of hERG tail current density [8] | serum level of LOR-253 [9] | blood compatibility of IV formulation [10] | inhibition of CYP450 enzymes [11]
Cc1[nH]c2ccc(F)cc2c1-c1nc2c3cccnc3c3ncccc3c2[nH]1 [LOR-253 HCl] | Excellent Safety Profile | Tumor shrinkage | No RECIST PR | Fatigue and 1 case of reversible hypophosphatemia | 41 | did not show other overt signs of toxicity | did not show body weight loss | about the same extent as or slightly more than azacitidine alone | approximately the same extent as or slightly more than azacitidine alone | approximately the same extent as or slightly more than azacitidine alone | significant tumor growth inhibition | significant tumor growth inhibition |  |  |  |  | 
Cc1[nH]c2ccc(F)cc2c1-c1nc2c3cccnc3c3ncccc3c2[nH]1 [LOR-253] |  |  |  |  |  |  |  |  |  |  |  |  | no treatment-related cardiovascular effects | no significant inhibition | dose related increase | confirmed the suitability of IV formulation | no significant inhibition
